Assay [1] relates to Mycobacterium tuberculosis. Kind of assay: Antimycobacterial activity against Mycobacterium tuberculosis H37Rv assessed as inhibition of visible growth […]. The format is functional.
The next assay deals with THP-1. The assay is described as follows: Cytotoxicity against human THP-1 cells assessed as cell viability measured after 96 hrs by MTT assay. Conditions: THP-1, 96 h. The format is cell-based. In general terms: Tetrazolium assays rely on reduction of a dye to a coloured formazan, in cell work by metabolically active cells.
Assay [2] can be described thus: Selectivity index, ratio of MIC99 for Mycobacterium tuberculosis H37Rv to IC50 for human THP-1 cells. The format is functional.
The test system of assay [3] is Staphylococcus aureus. The assay is described as follows: Antibacterial activity against Staphylococcus aureus assessed as inhibition of bacterial growth. The class given is functional.
In assay [4] the test system is Bacillus subtilis. Kind of assay: Antibacterial activity against Bacillus subtilis assessed as inhibition of bacterial growth. The class given is functional.
For assay [5], the system named is Bacillus subtilis. The assay is described as follows: Antibacterial activity against Bacillus subtilis assessed as inhibition of bacterial growth at 100 to 200 uM. The class given is functional. The following applies: dose 100-200 µM.
Assay [6] concerns Staphylococcus aureus. Kind of assay: Antibacterial activity against Staphylococcus aureus assessed as inhibition of bacterial growth at 100 to 200 uM. The format is functional. The following applies: dose 100-200 µM.
The test system of the next assay is FMN riboswitch. The assay is described as follows: Binding affinity to Lactobacillus plantarum NCDO 1752 FMN riboswitch at 150 nM measured by fluorescence assay. The format is nucleic-acid assay. Conditions: Lactiplantibacillus plantarum.

≈ marks a conversion by molar mass, not a printed value. Calls of active or inactive are those of the source. The rule behind the calls is not given here. Bounds are passed on as bounds.

Broadly, the MIC99 is an inhibitory concentration at the 99% level, which refers to growth in some studies and to a panel of isolates in others. Broadly, the IC50 is the concentration that gives 50% inhibition. With `CCCCCC(=O)OC[C@H](OC(=O)CCCCC)[C@H](OC(=O)CCCCC)[C@H](O)Cn1c2nc(=O)[nH]c(=O)c-2nc2cc(C)c(C)cc21`, the MIC99 in assay [1] was determined as 25 µM (≈ 16.8 µg/mL). In addition, the IC50 in the assay with THP-1 was more than 100 µM. Also, in assay [2], the “Selectivity Index” value is given as more than 4.
In the same order, the values of `CC(=O)OC[C@H](OC(C)=O)[C@H](OC(C)=O)[C@@H](Cn1c2nc(=O)n(C)c(=O)c-2nc2cc(C)c(C)cc21)OC(C)=O` are 12.5 µM (≈ 6.98 µg/mL), more than 100 µM and more than 2.
With `CCCCCCCCCCCC(=O)OC[C@H](O)[C@H](O)[C@H](O)Cn1c2nc(=O)[nH]c(=O)c-2nc2cc(C)c(C)cc21`, in assay [1], the MIC99 was more than 50 µM. For the same compound, the half-maximal inhibitory concentration (IC50) with THP-1 is 50 µM. Also, the “Selectivity Index” value in assay [2] stood at 1.
As a reminder, the MIC is the lowest concentration that inhibits growth of the organism. On to `CCCCCCCCCCCC(=O)OC[C@H](OC(=O)CCCCCCCCCCC)[C@H](OC(=O)CCCCCCCCCCC)[C@@H](Cn1c2nc(=O)[nH]c(=O)c-2nc2cc(C)c(C)cc21)OC(=O)CCCCCCCCCCC`, for which the MIC with Staphylococcus aureus [3] and in the assay on Bacillus subtilis [4] was 100 µM (≈ 111 µg/mL) in each case. The MIC99 in assay [1] is more than 50 µM. Moreover, the IC50 with THP-1 is more than 50 µM. In assay [2], the “Selectivity Index” value was 1.
Regarding `NNC(=O)c1ccncc1` [ISONIAZID], the MIC99 in assay [1] turned out to be 0.78 µM (≈ 0.107 µg/mL). In the assay with THP-1, the IC50 stood at 100 µM.
As to `Cc1cc2nc3c(=O)[nH]c(=O)nc-3n(CCO)c2cc1C`, the MIC99 in assay [1] was more than 50 µM. For the same compound, the IC50 in the assay with THP-1 was more than 50 µM. Besides, in assay [2], the “Selectivity Index” value amounted to 1.
Regarding `CCCC(=O)OC[C@H](OC(=O)CCC)[C@H](OC(=O)CCC)[C@@H](Cn1c2nc(=O)[nH]c(=O)c-2nc2cc(C)c(C)cc21)OC(=O)CCC`, the “inhibition (INH)” value with Bacillus subtilis [5] and in the assay on Staphylococcus aureus [6] was more than 90% in each case. For the same compound, the MIC99 in assay [1] came out at 50 µM (≈ 32.8 µg/mL). Moreover, the IC50 in the assay on THP-1 came to 100 µM. Besides, the “Selectivity Index” value in assay [2] worked out at 2.
Turning to `CCCC(=O)OC[C@H](OC(=O)CCC)[C@H](O)[C@H](O)Cn1c2nc(=O)[nH]c(=O)c-2nc2cc(C)c(C)cc21`, the “inhibition (INH)” value with Bacillus subtilis [5] and in the assay with Staphylococcus aureus [6] was more than 90% each time. In addition, in assay [1], the MIC99 was 25 µM (≈ 12.9 µg/mL). In the assay with THP-1, the half-inhibitory concentration (IC50) was more than 100 µM. Further, in assay [2], the “Selectivity Index” value was more than 4.
For `CCCCCCCCCCCC(=O)OC[C@H](OC(=O)CCCCCCCCCCC)[C@H](O)[C@H](O)Cn1c2nc(=O)[nH]c(=O)c-2nc2cc(C)c(C)cc21`, the MIC99 in assay [1] was more than 50 µM. For the same compound, the IC50 in the assay on THP-1 amounted to 25 µM. For the same compound, the “Selectivity Index” value in assay [2] is given as less than 0.5.
`CCCC(=O)OC[C@H](OC(=O)CCC)[C@H](OC(=O)CCC)[C@H](O)Cn1c2nc(=O)[nH]c(=O)c-2nc2cc(C)c(C)cc21`: the “inhibition (INH)” value in the assay with Bacillus subtilis [5] and in the assay with Staphylococcus aureus [6] was more than 90% each time. Further, the MIC99 in assay [1] came to 50 µM (≈ 29.3 µg/mL). In the assay on THP-1, the IC50 is more than 100 µM. The “Selectivity Index” value in assay [2] was more than 2.
For the compound `CCCCCCCCCCCC(=O)OC[C@H](OC(=O)CCCCCCCCCCC)[C@H](OC(=O)CCCCCCCCCCC)[C@H](O)Cn1c2nc(=O)[nH]c(=O)c-2nc2cc(C)c(C)cc21`, the inhibition result in the assay on Staphylococcus aureus [3] and in the assay with Bacillus subtilis [4] was “Active” in each case. In assay [1], the MIC99 was more than 50 µM. The IC50 with THP-1 came to 50 µM. The “Selectivity Index” value in assay [2] came out at 1.
As for `Cc1cc2nc3c(=O)[nH]c(=O)nc-3n(CC(O)O)c2cc1C`, the MIC99 in assay [1] turned out to be 6.25 µM (≈ 1.89 µg/mL). Besides, the IC50 with THP-1 was more than 100 µM. Moreover, the “Selectivity Index” value in assay [2] is more than 10.7. The Kb with FMN riboswitch is 5.42 10^5/M.
`CC(=O)OC[C@H](OC(C)=O)[C@H](OC(C)=O)[C@@H](Cn1c2nc(=O)[nH]c(=O)c-2nc2cc(C)c(C)cc21)OC(C)=O`: the MIC99 in assay [1] amounted to 25 µM (≈ 13.6 µg/mL). In addition, in the assay with THP-1, the IC50 was determined as 25 µM. In assay [2], the “Selectivity Index” value was 1.
On to `CCCCCC(=O)OC[C@H](OC(=O)CCCCC)[C@H](OC(=O)CCCCC)[C@@H](Cn1c2nc(=O)[nH]c(=O)c-2nc2cc(C)c(C)cc21)OC(=O)CCCCC`, for which the MIC99 in assay [1] is 50 µM (≈ 38.4 µg/mL). Besides, the IC50 in the assay with THP-1 was more than 50 µM. In assay [2], the “Selectivity Index” value is more than 1.

The record behind these values is ChEMBL document CHEMBL4823285, “Synthesis and evaluation of antimycobacterial activity of riboflavin derivatives” (Bioorg Med Chem Lett, 2021).
